Patent US20240343699A1, “DERIVATIVES OF SUBSTITUTED MORPHOLINES AND USES THEREOF” (Supernus Pharmaceuticals, Inc., priority 2023, published 2024)

What was measured:
recognition memory = experiment: Novel object recognition, scopolamine-impairment model, 3 hr retention interval
human red blood cells = experiment: Hemolysis in human blood; assay type: cell-based
Procedure: Stability of Test Articles at Different pH Values. 10 mM stock solutions of COMPOUND A were prepared in DMSO. From this stock solution, a single concentration in a 10 μL aliquot was added to three fluid matrices: SGF at pH 2.0 (gastric), SIF at pH 6.0 (upper intestine), and PBS at 7.4 (systemic). The final volume was 1 mL (0.1 mM). The preparations were then incubated at 37° C. and samples were collected at 0, 15, 30, 60, and 120 min for analysis of parent material by LC/MS/MS. The collected sample was quenched in acetonitrile/0.1% formic acid mixture. Red Blood Cell (RBC): Human and rat blood were centrifuged to separate out red blood cells at […] for 15 min. The upper plasma level was aspirated with a micropipette and placed in a bleach solution for disposal. The RBC pellet was resuspended in sterile isotonic saline. The pellet was gently resuspended by rocking the tube. […]
Stability in Human and Rat Red Blood cells and Hemolysis. […] After centrifugation, 70 μL of supernatant (without disturbing the pellet) was transferred to a clean and clear polystyrene flat bottomed 96-well plate and the absorbance of the sample at a single wavelength was measured using a Bio Tech Synergy Hl Plate Reader at a wavelength of 410 nm. […] Stability was measured by measuring loss of parent compound using LC/MS/MS.

Q: With `CCOc1ccccc1OC[C@@H]1CN(C(=O)OC(C)OC(=O)[C@@H](N)C(C)C)CCO1` (stereo partly shown) [COMPOUND A] as the compound, how does the “d2 ratios: effect on scopolamine impairment” value (recognition memory; COMPOUND A 90 mg/kg p.o. + scopolamine) read?
A: The value was “significantly attenuated this effect of scopolamine”.

Q: What about the “preference for the novel object (exploration times)” value (recognition memory; COMPOUND A 30, 60, and 90 mg/kg p.o. + scopolamine, 3 hr delay) of the same compound?
A: The value was “significant (p<0.05) preference for the novel object”.

Q: And the “hemolysis (% RBC lysis)” value (human red blood cells; human blood, 25, 50, 100 μM, 1 hr)?
A: The value was “no detectable hemolysis”.

Q: And the “EC50 (% RBC lysis)” value (human red blood cells; human blood, 60 min exposure)?
A: Its value is “outside the concentration range tested”.
